Data set [1] in a line: Saturated solubility of the main drug in different media. It is filed as physicochemical. Particulars: for solubility at 72 h: thermodynamic from solid, 37° C. How it is done:
The solubility of the main drug (5-nitro-8-hydroxyquinoline L-lysinate monohydrate) is greatly affected by pH. In order to select a suitable dissolution medium to achieve the sink condition, the saturated solubility of the main drug in water, pH 1.0 hydrochloric acid solution, pH 4.0 buffer (solution A: water was added to 21 g of citric acid or 19.2 g of anhydrous citric acid to obtain a 1000 mL solution, which was then stored in a refrigerator; solution B: water was added to 71.63 g of disodium hydrogen phosphate to obtain a 1000 mL solution; 61.45 mL of solution A and 38.55 mL of solution B were mixed and shaked well to obtain the pH 4.0 buffer) and pH 6.8 PBS buffer (118 mL of 0.2 mol/L sodium hydroxide solution was added to 250 mL of 0.2 mol/L phosphoric acid solution, the resulting solution was diluted with water to 1000 mL and shaked well to obtain the pH 6.8 PBS buffer) were investigated. The specific method: excessive main drug (about 1.5 g) was added to 10 mL of the above four media, respectively; the resulting mixture was placed in a SHA-B multifunctional water bath constant temperature shaker (manufacturer: Zenith Lab (Jiangsu) Co., Ltd.) at water bath temperature of 37° C. and shaked at a speed of 280 rpm for 72 hours; the solution was filtered through a 0.45 μm nitrocellulose membrane (manufacturer: Tianjin Jinteng Experimental Equipment Co., Ltd.); and the filtrate was measured with a UV-2700 ultraviolet-visible spectrophotometer (manufacturer: Shimadzu, Japan), detection wavelength: 369 nm.

The conditions of data set [2]: compared with nitroxoline; in words; cited from earlier work.

As usually defined, the solubility is the dissolved amount per volume that the medium holds. A lower solubility goes with a poorly soluble substance. On to `O=[N+]([O-])c1ccc(O)c2ncccc12` [main drug, 5-nitro-8-hydroxyquinoline L-lysinate monohydrate], for which the “Whether the sink condition was achieved” value in data set [1] (Water) is reported as “Yes”; in data set [1] (pH 1.0 hydrochloric acid solution), “Yes”; in data set [1] (pH 4.0 buffer), “No”; in data set [1] (pH 6.8 PBS buffer), “Yes”. Besides, the solubility at 72 h in data set [1] (aqueous buffer, pH 6.8 PBS buffer) is 15700 µg/mL; in data set [1] (pH 4.0 buffer (citric acid / disodium hydrogen phosphate), aqueous buffer, pH 4.0 buffer), 430 µg/mL; in data set [1] (simulated gastric fluid, pH 1.0 hydrochloric acid solution), 1540 µg/mL; in data set [1] (Water) it was 100000 µg/mL.
With `O=[N+]([O-])c1ccc(O)c2ncccc12` [nitroxoline lysinate], the water solubility entry in data set [2] is recorded as “better than that of nitroxoline”.

Values taken from patent publication US12653818B2, “Pharmaceutical compositions comprising nitroxoline lysinate, preparation method therefor and use thereof” (Jiangsu Yahong Meditech Co., Ltd., priority 2020, dated 2026).
